# Laboratory results: publication PMC9022229, “Induction of Paraptosis by Cyclometalated Iridium Complex-Peptide Hybrids and CGP37157 via a Mitochondrial Ca^2+ Overload Triggered by Membrane Fusion between Mitochondria and the Endoplasmic Reticulum” (Biochemistry, 2022)
# Where two headings read alike, the source gives them in different places. Residues, ends and D or L forms follow the SMILES beside them. *: point of attachment. X1 = O=C(COc1ccc(-c2ccccn2)cc1)NCCCCCCCCN*
# What was measured:
# Format in all cases: cell-based
# [1] = tested on: Jurkat cells; experiment: Mitochondria-ER membrane fusion, co-staining with MitoTracker Green and ER-Tracker Red
# Procedure: To verify this hypothesis, mitochondria and the ER were stained with both MitoTracker Green and ER-Tracker Red in the presence of 4, CGP37157, and celastrol (Figure 8). Jurkat cells were stained with MitoTracker Green (0.5 μM) and ER-Tracker Red (1 μM) and then treated with 4 (5 μM) for 10–30 min (time-dependent microscopic images are presented in Figure S5). […] With regard to CGP37157 and celastrol, Jurkat cells were stained with MitoTracker Green (0.5 μM) and ER-Tracker Red (1 μM) and then treated with CGP37157 (100 μM) and celastrol (1 μM) for 1–24 h (Figure 8 and Figure S5).
# In a 1.5 mL Eppendorf tube, Jurkat cells (2.0 × 10^5 cells) were stained with MitoTracker Green (0.5 μM) for 1 h at 37 °C under 5% CO2 and then ER-Tracker Red (1 μM) for 1 h at 37 °C under 5% CO2 in 10% FBS/RPMI 1640 medium (100 μL). After being washed with PBS, the cells were treated with 4 (5 μM) in 10% FBS/RPMI 1640 medium (100 μL) for 0–30 min at 37 °C under 5% CO2. For CGP37157 and celastrol, Jurkat cells were treated with CGP37157 (100 μM) or celastrol (1 μM) in 10% FBS/RPMI 1640 medium (100 μL) for 0–24 h, after which the cells were stained with MitoTracker Green (0.5 μM) for 1 h at 37 °C under 5% CO2 and then ER-Tracker Red (1 μM) for 1 h at 37 °C under 5% CO2 in PBS. The cells were washed with PBS and observed by confocal microscopy (Fluoview, FV-1000, Olympus) using a Greiner CELLview dish (35 mm × 10 mm). Excitation at 473 nm and emission from 485 to 545 nm were used for MitoTracker Green. Excitation at 559 nm and emission from 570 to 620 nm were used for ER-Tracker Red. The exposure time was 20 μs/pixel.
# [2] = tested on: Jurkat cells
# Procedure: The cytotoxicity of 4 against Jurkat cells was evaluated by conducting MTT assays [MTT = 3-(4,5-dimethyl-2-thiazolyl)-2,5-diphenyl-2H-tetrazolium bromide] as a function of time and by microscopic observations to determine the appropriate conditions for mechanistic studies of paraptosis (Figure 1).
# It was reported that an inhibitor of a mitochondrial Na^+/Ca^2+ exchanger (mNCX), which functions to export Ca^2+ from the mitochondrial matrix to the cytosol in exchange with cytosolic Na^+, affects the mitochondrial Ca^2+ concentration.[60]−[63],[88]−[90] We therefore examined the cytotoxicity of CGP37157 (Chart 2), a typical inhibitor of mNCX,[60],[61],[88]−[90] against Jurkat cells by means of an MTT assay. […] For microscopic observations, Jurkat cells were treated with CGP37157 (100 μM) for 0–24 h, and cell death was observed after treatment with CGP37157 for 12–24 h, by staining with propidium iodide (PI) (Figure 3B).
# HeLa S3 and A549 cells (2.0 × 10^4 cells/well) were seeded on a 96-well plate (BD Falcon) in cell culture medium and incubated overnight at 37 °C under 5% CO2. Jurkat (2.0 × 10^4 cells/well), HeLa S3, and A549 cells were treated with 4 (0–25 μM) and CGP37157 (0–100 μM) for 1, 3, 6, 12, and 24 h at 37 °C under 5% CO2, after which a MTT solution in PBS (0.5%, 10 μL) was added to each well.
# Statistical analyses of MTT assays were performed by using Graphpad Prism 9 software with the Student’s t test. Data are presented as means ± the standard deviation of three independent experiments, and a P of <0.05 was considered to indicate a statistically significant difference.
# [3] = tested on: Jurkat cells; experiment: Cytosolic Ca2+ by flow cytometry with Rhod-4
# Procedure: (§1) Other characteristic phenomena of paraptosis such as a mitochondrial Ca^2+ overload and loss of mitochondrial membrane potential (ΔΨm) induced by CGP37157 were also examined. Intracellular Ca^2+ concentrations were measured by flow cytometry using red-emitting Ca^2+ probes, Rhod-2 (a mitochondrial Ca^2+ probe) and Rhod-4 (a cytosolic Ca^2+ probe). Jurkat cells were stained with Rhod-2/AM or Rhod-4/AM (at 5 μM) and then treated with CGP37157 (100 μM) or 4 (5 μM) for a given period of incubation, immediately after which the emission intensity of Rhod-2 and Rhod-4 was measured by flow cytometry. […]
# (§2) In a 1.5 mL Eppendorf tube, Jurkat cells (2.0 × 10^5 cells) were incubated in the presence of Rhod-2/AM (5 μM, 100 μL) or Rhod-4/AM (5 μM, 100 μL) in 10% FBS/RPMI 1640 medium for 30 min at 37 °C under 5% CO2 and then treated with 4 (5 μM, 0–30 min) or CGP37157 (100 μM, 0–6 h) in 10% FBS/RPMI 1640 medium (100 μL) for 30 min at 37 °C under 5% CO2. Immediately after the treatment, 10% FBS/RPMI 1640 medium (300 μL) was added to the cells and the samples were analyzed on a flow cytometer (FACSCalibur cytometer, Becton). The data were analyzed on FlowJo software (FlowJo, LCC).
# [4] = tested on: Jurkat cells; experiment: Mitochondrial Ca2+ by flow cytometry with Rhod-2
# Procedure: as §1, §2
# [5] = tested on: MFN1- and/or MFN2-KD Jurkat cells; experiment: MTT assay of MFN1- and/or MFN2-KD Jurkat cells; settings: siRNA 10 nM, three independent experiments
# Procedure: The roles of MFNs in the cell death induced by 4 and CGP37157 were examined by using small interfering RNA (siRNA) for MFN1 and MFN2 to knock down (KD) these proteins. […] The cytotoxicity of 4 and CGP37157 against MFN1- and/or MFN2-KD Jurkat cells was evaluated by MTT assays. […] The effect of a negative control siRNA (NCsiRNA) on the expression levels of MFNs and the cell viability of Jurkat cells was negligible, implying that MFNs are […] to the paraptosis induced by 4 and CGP37157. It should be noted that the treatment with siRNA at 5 nM for 72 h was toxic against Jurkat cells in the presence of 4 and CGP37157, although the efficiency of knockdown of these proteins by siRNA could be improved by increasing the incubation time, as shown in Figure S11.
# To a solution of transfection reagent (INTERFERin, 5 μL) in OPTI-MEM (0.3 mL) in a 1.5 mL Eppendorf tube was added siRNA (10 μM, 1 or 2 μL) in H2O, and the resulting solution was allowed to stand for 15 min at room temperature. The resulting solution was then added to Jurkat cells (2.0 × 10^5 cells/mL, 1.5 mL) in 10% FBS/RPMI 1640 medium that had been seeded on a 12-well plate and incubated overnight at 37 °C under 5% CO2 (the final concentration of siRNA was 5 or 10 nM), and the resulting solution was incubated for 48 or 72 h at 37 °C under 5% CO2. The cells were collected by centrifugation (2000 rpm, 3 min, 4 °C), and the expression levels of MFNs were evaluated by Western blot analysis as described above. The cytotoxicity of 4 (3 or 5 μM), CGP37157 (50 or 100 μM), and celastrol (1 μM) against MFNs-KD Jurkat cells was evaluated by MTT assays as described above.
Structure (SMILES),"Overlap of MitoTracker Green and ER-Tracker Red emission (mitochondria-ER membrane fusion) ([1]; 4 at 5 μM, 10 min)",EC50 ([2]; 1 h) [nM],EC50 ([2]; 3 h) [nM],EC50 ([2]; 6 h) [nM],EC50 ([2]; 12 h) [nM],EC50 ([2]; 24 h) [nM],"Emission of Rhod-4 (cytosolic Ca2+) ([3]; 4 at 5 μM, 10–30 min)","Emission intensity of Rhod-2 (mitochondrial Ca2+) ([4]; 4 at 5 μM, 10–30 min after treatment)","Effect of knockdown of MFNs on cell death induced by the compound ([5]; 4 at 3 or 5 µM, 1 h)","Overlap of MitoTracker Green and ER-Tracker Red emission (mitochondria-ER membrane fusion) ([1]; CGP37157 100 μM, 6 h)","EC50 ([2]; 12 h incubation, 10% FBS/RPMI 1640, 37 °C, 5% CO2, read-out: EC50 (MTT, Jurkat cells)) [nM]","EC50 ([2]; 24 h incubation, 10% FBS/RPMI 1640, 37 °C, 5% CO2, read-out: EC50 (MTT, Jurkat cells)) [nM]","Emission of Rhod-4 (cytosolic Ca2+) ([3]; CGP37157 100 μM, 1–6 h)","Emission intensity of Rhod-2 (mitochondrial Ca2+) ([4]; CGP37157 100 μM, 6 h after treatment)","Effect of knockdown of MFNs on cell death induced by the compound ([5]; CGP37157 50 or 100 µM, 12 h)"
NCCCC[C@H](NC(=O)[C@H](CCCCN)NC(=O)[C@@H](N)CCCCN)C(=O)NCC(=O)NCC(=O)NCCCCCCCCNC(=O)COc1ccc(-c2ccccn2)cc1 [compound 4] (H-KKKGG-X1),extensively overlapped,3200,2000,1500,1200,1700,small emission enhancement,enhanced,weakly inhibited,–,–,–,–,–,–
O=C1CSC(c2ccccc2Cl)c2cc(Cl)ccc2N1 (stereo not drawn) [CGP37157],–,–,–,–,–,–,–,–,–,extensively overlapped,74000,55000,small emission enhancement,enhanced,weakly inhibited
